These results are taken from patent publication US20110082130A1 (LIGAND PHARMACEUTICALS, INC., priority 2006, published 2011).

As a reminder, the Ki is the equilibrium dissociation constant of an inhibitor or competing ligand from its target.

T1 sequence (Q9Y5N1 with tags, fused parts or gaps): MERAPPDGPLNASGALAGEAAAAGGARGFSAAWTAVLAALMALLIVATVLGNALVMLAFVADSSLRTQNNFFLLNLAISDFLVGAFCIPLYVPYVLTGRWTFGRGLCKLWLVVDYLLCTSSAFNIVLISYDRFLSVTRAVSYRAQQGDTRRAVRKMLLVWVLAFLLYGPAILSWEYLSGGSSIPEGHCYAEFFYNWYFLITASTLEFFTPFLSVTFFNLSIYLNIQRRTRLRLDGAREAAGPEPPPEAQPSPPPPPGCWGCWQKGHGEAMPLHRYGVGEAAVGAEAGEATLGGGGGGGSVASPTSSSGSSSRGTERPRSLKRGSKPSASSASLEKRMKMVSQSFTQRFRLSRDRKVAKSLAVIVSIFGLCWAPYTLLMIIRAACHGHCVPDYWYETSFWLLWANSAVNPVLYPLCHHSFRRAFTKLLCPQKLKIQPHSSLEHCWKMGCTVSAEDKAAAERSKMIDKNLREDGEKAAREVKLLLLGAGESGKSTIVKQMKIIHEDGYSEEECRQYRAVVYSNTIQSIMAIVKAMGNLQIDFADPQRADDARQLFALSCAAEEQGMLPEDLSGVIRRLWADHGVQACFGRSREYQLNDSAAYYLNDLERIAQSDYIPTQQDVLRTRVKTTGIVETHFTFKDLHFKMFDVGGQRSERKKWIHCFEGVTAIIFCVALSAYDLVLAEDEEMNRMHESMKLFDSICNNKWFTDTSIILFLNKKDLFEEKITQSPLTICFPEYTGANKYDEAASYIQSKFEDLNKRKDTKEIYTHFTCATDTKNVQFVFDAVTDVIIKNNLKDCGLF

The first assay has as its target T1, chimeric human H3 receptor (Homo sapiens, UniProt Q9Y5N1).
T1 construct: made in house; host or cells: Sf9 insect cells (baculovirus); P2 membrane preparation
The assay can be described thus: Chimeric human H3 receptor GTP binding assay (agonist-stimulated GTP-gamma35S binding, Example 7). It is filed as biochemical. Conditions: Table I; P2 membranes of Sf9 cells, 1 μM histamine as agonist, Ki from IC50 by Cheng-Prusoff. A digest of the protocol: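 Sf9 membranes co-expressing chimeric human H3 receptor and heterotrimeric G-protein, 35 μg/tube, in pH 7.4 Tris buffer with 10 μM GDP. Test compounds (10^−10–10^−6 M) competed against 1 μM histamine, […] GTP-gamma35S, 60 min at room temperature. Filter-bound radioactivity counted; IC50 converted to Ki by Cheng-Prusoff. Agonism/inverse agonism tested without histamine (EC50).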
Consider `CC(=O)c1ccc2c(c1)CCN(CC(=O)N1CCN(C3CCC3)CC1)C2` [Compound 61, 1-{2-[2-(4-cyclobutylpiperazin-1-yl)-2-oxoethyl]-1,2,3,4-tetrahydroisoquinolin-6-yl}ethanone], for which the Ki was < 1000 nM.

`O=C(CN1CCc2cc(-c3ccncc3)ccc2C1)N1CCN(C2CCC2)CC1` [Compound 75, 2-[2-(4-cyclobutylpiperazin-1-yl)-2-oxoethyl]-6-pyridin-4-yl-1,2,3,4-tetrahydroisoquinoline]: the Ki was < 1000 nM.

With `CNC(=O)c1ccc2c(c1)CN(CC(=O)N1CCN(C3CCC3)CC1)CC2` [Compound 66, 2-[2-(4-cyclobutylpiperazin-1-yl)-2-oxoethyl]-N-methyl-1,2,3,4-tetrahydroisoquinoline-7-carboxamide], the Ki was < 1000 nM.

Staying with this assay, now noted: Table II "Ki", symbol *; assay of Example 7.
For the compound `COCCCNc1ccc2c(n1)CCN(CC(=O)N1CCN(C3CCC3)CC1)C2` [Compound 664, 6-[2-(4-cyclobutylpiperazin-1-yl)-2-oxoethyl]-N-(3-methoxypropyl)-5,6,7,8-tetrahydro-1,6-naphthyridin-2-amine], the Ki is < 1000 nM.

As to `O=C(CN1CCc2cc(-c3cnc4ccccc4c3)ccc2C1)N1CCN(C2CCC2)CC1` [Compound 638, 3-{2-[2-(4-cyclobutylpiperazin-1-yl)-2-oxoethyl]-1,2,3,4-tetrahydroisoquinolin-6-yl}quinoline], the Ki is < 1000 nM.

Take `CC(C)Oc1cccc(-c2ccc3c(c2)CCN(CC(=O)N2CCN(C4CCC4)CC2)C3)c1` [Compound 513, 2-[2-(4-cyclobutylpiperazin-1-yl)-2-oxoethyl]-6-(3-isopropoxyphenyl)-1,2,3,4-tetrahydroisoquinoline]: the Ki is < 1000 nM.

With `CCC(COC)Nc1ccc2c(n1)CCN(CC(=O)N1CCN(C3CCC3)CC1)C2` (centres unmarked) [Compound 666, 6-[2-(4-cyclobutylpiperazin-1-yl)-2-oxoethyl]-N-[1-(methoxymethyl)propyl]-5,6,7,8-tetrahydro-1,6-naphthyridin-2-amine], the Ki was < 1000 nM.

As to `COc1ccc(-c2ccc3c(c2)CCN(CC(=O)N2CCN(C4CCC4)CC2)C3)cc1F` [Compound 502, 2-[2-(4-cyclobutylpiperazin-1-yl)-2-oxoethyl]-6-(3-fluoro-4-methoxyphenyl)-1,2,3,4-tetrahydroisoquinoline], the inhibitory constant (Ki) is < 1000 nM.

For the compound `CN(C)Cc1ccc(-c2ccc3c(c2)CCN(CC(=O)N2CCN(C4CCC4)CC2)C3)cc1` [Compound 642, 1-(4-{2-[2-(4-cyclobutylpiperazin-1-yl)-2-oxoethyl]-1,2,3,4-tetrahydroisoquinolin-6-yl}phenyl)-N,N-dimethylmethanamine], the Ki was < 1000 nM.

For `CN(C)c1ccc(-c2ccc3c(c2)CCN(CC(=O)N2CCN(C4CCCC4)CC2)C3)cc1` [Compound 533, 4-{2-[2-(4-cyclopentylpiperazin-1-yl)-2-oxoethyl]-1,2,3,4-tetrahydroisoquinolin-6-yl}-N,N-dimethylaniline], the inhibition constant Ki is < 1000 nM.

Regarding `CC1CCCCN1c1ccc2c(n1)CCN(CC(=O)N1CCN(C3CCC3)CC1)C2` (centres unmarked) [Compound 676, 6-[2-(4-cyclobutylpiperazin-1-yl)-2-oxoethyl]-2-(2-methylpiperidin-1-yl)-5,6,7,8-tetrahydro-1,6-naphthyridine], the Ki was < 1000 nM.

For `CN(c1ccc2c(n1)CCN(CC(=O)N1CCN(C3CCC3)CC1)C2)C1CCCCC1` [Compound 677, 6-[2-(4-cyclobutylpiperazin-1-yl)-2-oxoethyl]-N-cyclohexyl-N-methyl-5,6,7,8-tetrahydro-1,6-naphthyridin-2-amine], the Ki was < 1000 nM.

Still in this assay, the particulars now being: Table II; "*" = Ki in assay of Example 7 less than 1 micromolar.
With `CC(=O)c1ccc2c(n1)CCN(CC(=O)N1CCN(C3CCC3)CC1)C2` [Compound 173, 1-{6-[2-(4-cyclobutylpiperazin-1-yl)-2-oxoethyl]-5,6,7,8-tetrahydro-1,6-naphthyridin-2-yl}ethanone], the Ki was < 1000 nM.

For the compound `O=C(CN1CCc2cc(N3CCCC3)nnc2C1)N1CCN(C2CCC2)CC1` [Compound 221, 7-[2-(4-cyclobutylpiperazin-1-yl)-2-oxoethyl]-3-pyrrolidin-1-yl-5,6,7,8-tetrahydropyrido[3,4-c]pyridazine], the inhibition constant (Ki) is < 1000 nM.

With `O=C(CN1CCc2nc(N3CCOCC3)ncc2C1)N1CCN(C2CCC2)CC1` [Compound 139, 6-[2-(4-cyclobutylpiperazin-1-yl)-2-oxoethyl]-2-morpholin-4-yl-5,6,7,8-tetrahydropyrido[4,3-d]pyrimidine], the Ki is < 1000 nM.

For the compound `O=C(CN1CCc2cc(-c3ncccn3)ccc2C1)N1CCN(C2CCC2)CC1` [Compound 131, 2-[2-(4-cyclobutylpiperazin-1-yl)-2-oxoethyl]-6-pyrimidin-2-yl-1,2,3,4-tetrahydroisoquinoline], the inhibition constant Ki is < 1000 nM.

Take `Cn1cc(-c2cc3c(s2)CCN(CC(=O)N2CCN(C4CCC4)CC2)C3)ccc1=O` [Compound 270, 5-{5-[2-(4-cyclobutylpiperazin-1-yl)-2-oxoethyl]-4,5,6,7-tetrahydrothieno[3,2-c]pyridin-2-yl}-1-methylpyridin-2(1H)-one]: the Ki was < 1000 nM.

With `O=C(CN1CCc2cc(-c3cnccn3)ccc2C1)N1CCN(C2CCC2)CC1` [Compound 128, 2-[2-(4-cyclobutylpiperazin-1-yl)-2-oxoethyl]-6-pyrazin-2-yl-1,2,3,4-tetrahydroisoquinoline], the inhibition constant (Ki) was < 1000 nM.

Turning to `CC1CCC[C@H]2CN(C(=O)CN3CCc4nc(N5CCOCC5)ncc4C3)CCN12` (some centres unmarked) [Compound 186, 6-[2-(6-methyloctahydro-2H-pyrido[1,2-a]pyrazin-2-yl)-2-oxoethyl]-2-morpholin-4-yl-5,6,7,8-tetrahydropyrido[4,3-d]pyrimidine], the inhibitory constant (Ki) is < 1000 nM.

On to `CCC(CC)N1CCN(C(=O)CN2CCc3cc(-c4cncnc4)ccc3C2)CC1` [Compound 145, 2-{2-[4-(1-ethylpropyl)piperazin-1-yl]-2-oxoethyl}-6-pyrimidin-5-yl-1,2,3,4-tetrahydroisoquinoline], for which the Ki is < 1000 nM.

For `O=C(CN1CCc2nn(-c3cncc(N4CCCC4)n3)cc2C1)N1CCN(C2CCC2)CC1` [Compound 268, 5-[2-(4-cyclobutylpiperazin-1-yl)-2-oxoethyl]-2-(6-pyrrolidin-1-ylpyrazin-2-yl)-4,5,6,7-tetrahydro-2H-pyrazolo[4,3-c]pyridine], the inhibition constant (Ki) was < 1000 nM.

`O=C(CN1CCc2nc(-c3cccnn3)sc2C1)N1CCN(C2CCC2)CC1` [Compound 279, 5-[2-(4-cyclobutylpiperazin-1-yl)-2-oxoethyl]-2-pyridazin-3-yl-4,5,6,7-tetrahydro[1,3]thiazolo [5,4-c]pyridine]: the Ki was < 1000 nM.

As to `O=C(CN1CCc2nc(-c3cccnn3)ccc2C1)N1CCN(C2CCC2)CC1` [Compound 172, 6-[2-(4-cyclobutylpiperazin-1-yl)-2-oxoethyl]-2-pyridazin-3-yl-5,6,7,8-tetrahydro-1,6-naphthyridine], the Ki is < 1000 nM.

For the compound `O=C(CN1CCc2nc(-n3cccc3)ccc2C1)N1CCN(C2CCC2)CC1` [Compound 227, 6-[2-(4-cyclobutylpiperazin-1-yl)-2-oxoethyl]-2-(1H-pyrrol-1-yl)-5,6,7,8-tetrahydro-1,6-naphthyridine], the Ki was < 1000 nM.

Turning to `CC(=O)c1ccc(-n2cc3c(n2)CCN(CC(=O)N2CCN(C4CCC4)CC2)C3)nn1` [Compound 202, 1-(6-{5-[2-(4-cyclobutylpiperazin-1-yl)-2-oxoethyl]-4,5,6,7-tetrahydro-2H-pyrazolo[4,3-c]pyridin-2-yl}pyridazin-3-yl)ethanone], the inhibition constant (Ki) was < 1000 nM.

For the compound `O=C(CN1CCc2nc(N3CCC(O)C3)ccc2C1)N1CCN(C2CCC2)CC1` (centres unmarked) [Compound 226, 1-{6-[2-(4-cyclobutylpiperazin-1-yl)-2-oxoethyl]-5,6,7,8-tetrahydro-1,6-naphthyridin-2-yl}pyrrolidin-3-ol], the Ki was < 1000 nM.

On to `O=C(CN1CCc2nc(N3CCC(F)(F)C3)ccc2C1)N1CCN(C2CCC2)CC1` [Compound 242, 6-[2-(4-cyclobutylpiperazin-1-yl)-2-oxoethyl]-2-(3,3-difluoropyrrolidin-1-yl)-5,6,7,8-tetrahydro-1,6-naphthyridine], for which the Ki was < 1000 nM.

Take `N#Cc1ccc(-n2cc3c(n2)CCN(CC(=O)N2CCN(C4CCC4)CC2)C3)nn1` [Compound 203, 6-{5-[2-(4-cyclobutylpiperazin-1-yl)-2-oxoethyl]-4,5,6,7-tetrahydro-2H-pyrazolo[4,3-c]pyridin-2-yl}pyridazine-3-carbonitrile]: the Ki was < 1000 nM.

Staying with this assay, now noted: assay of Example 7; "*" in Ki of Table II.
Consider `CC(C)N1CCN(C(=O)CN2CCc3cc(-c4ccc(S(C)(=O)=O)cc4)ccc3C2)CC1` [Compound 382, 2-[2-(4-isopropylpiperazin-1-yl)-2-oxoethyl]-6-[4-(methylsulfonyl)phenyl]-1,2,3,4-tetrahydroisoquinoline], for which the Ki is < 1000 nM.

In the case of `COc1cc(-c2nc3c(s2)CN(CC(=O)N2CCN(C4CCC4)CC2)CC3)cc(OC)c1OC` [Compound 326, 5-[2-(4-cyclobutylpiperazin-1-yl)-2-oxoethyl]-2-(3,4,5-trimethoxyphenyl)-4,5,6,7-tetrahydro[1,3]thiazolo [5,4-c]pyridine], the Ki is < 1000 nM.

Regarding `Cc1ccc(-c2nc3c(s2)CN(CC(=O)N2CCN(C4CCC4)CC2)CC3)c(F)c1` [Compound 301, 5-[2-(4-cyclobutylpiperazin-1-yl)-2-oxoethyl]-2-(2-fluoro-4-methylphenyl)-4,5,6,7-tetrahydro[1,3]thiazolo [5,4-c]pyridine], the inhibition constant Ki is < 1000 nM.

With `O=C(CN1CCc2nc(-c3ccc(Cl)cc3)sc2C1)N1CCN(C2CCC2)CC1` [Compound 296, 2-(4-chlorophenyl)-5-[2-(4-cyclobutylpiperazin-1-yl)-2-oxoethyl]-4,5,6,7-tetrahydro[1,3]thiazolo [5,4-c]pyridine], the Ki is < 1000 nM.
